Test results published in article PMC11127902, “Rescuing tri-heteromeric NMDA receptor function: the potential of pregnenolone-sulfate in loss-of-function GRIN2B variants” (Cellular and Molecular Life Sciences: CMLS, 2024).
Read-outs that look alike come from different tables or passages of the source.

Assays:
[1] = system: Mixed tri-heteromeric GluN2A-L812M/ GluN2B-wt; set-up: method as in PMID 35110392; details: glutamate; ref 10; cited from earlier work
[2] = system: Pure variant di-heteromeric GluN2A-L649V; set-up: method as in PMID 35110392; details: glutamate; ref 10; cited from earlier work
[3] = system: Pure variant di-heteromeric GluN2B-C461F; set-up: method as in PMID 27839871; details: glutamate; ref 21; cited from earlier work
[4] = system: Mixed tri-heteromeric GluN2A-wt/ GluN2B-A639V; set-up: method as in PMID 35110392; details: glutamate; ref 10; cited from earlier work
[5] = system: Pure variant di-heteromeric GluN2A-L812M; set-up: method as in PMID 24504326; details: glutamate; ref 39; cited from earlier work
[6] = biological target: Mixed di-heteromeric GluN2B-wt/GluN2B-G689C (Rattus norvegicus, UniProt P35439+Q00960, G689C); assay: TEVC in Xenopus oocytes; details: glutamate dose-response
Procedure: (§2) Two electrode voltage clamp (TEVC) recordings were carried out 24–72 h after mRNA injections, as previously described [17, 37]. We use a commercial amplifier (Warner Instruments, USA) and Digitizer (Digidata-1550B; Molecular Devices, USA), controlled by the pClamp10 software (Molecular Devices, USA). Electrode were made by pulling glass capillaries (Narishige, Japan) filled with 3 M KCl, into which we inserted chlorinated silver wires. […] For hERG channel recordings, oocytes were clamped at (− 60) mV for 1 s, followed by a voltage jump to 20 mV for 4 s, and an additional voltage jump to (− 50) mV for 6 s and return to baseline voltage (see Supplementary. 6f), as previously described [53].
(§3) When assessing potentiation by PS, all other solutions also included equal amounts of the DMSO carrier (0.2%).
(§4) Electrophysiology data were analyzed by Clampfit 11.2 (Molecular Devices, USA), plotted using GraphPad 8 or SigmaPlot 11(Systat software, Inc.). […] In all TEVC recordings in oocytes, the responses were normalized to current amplitude obtained from that individual cell. […] All data are shown as mean ± SEM. In all experiments N indicates the number of independent experiments, whereas n indicates the number of cells recorded. In each experiment, data underwent normality test prior to statistical assessment. Normally distributed data were assessed for significance by using paired t-test or one-way ANOVA for multiple group comparison and post hoc Tukey test or Dunnett's test. Similarly, in the case of non-normally distributed data significance was assessed by Mann Whitney test or Kruskal–Wallis ANOVA on ranks test followed by Dunn’s multiple comparison post hoc; n.s., non-significant; *p < 0.05; **p < 0.01; ***p < 0.001. […] Leak expression was evaluated by normalizing the maximal current (Imax) of each ER-retained NMDAR composition to Imax of control group (which was recorded in all experiments). Estimation of activation time constant (τ) for potentiated currents by PS, was performed by fitting PS- potentiated currents with a standard single-exponential function, from which we extracted the time constant (τ).

[7] = system: Mixed di-heteromeric GluN2B-wt/GluN2B-G689C; assay: TEVC in Xenopus oocytes; details: compared to purely di-heteromeric variant channels
Procedure: as §2, §3, §4

[8] = biological target: T1, Tri-heteromeric GluN2A-wt/GluN2B-G689C (Rattus norvegicus, UniProt P35439+Q00959+Q00960, A876H/F846L/G689C/G856D/H848F/K857R/M851T/M860L/Q845K/V861L); format: cell-based; details: glutamate dose-response
T1 construct: expressed in transfected cells; host or cells: Xenopus laevis oocytes, mRNA injection
Excerpt: (§1) Aliquots were thawed before each experiment.

[9] = biological target: T2, Tri-heteromeric GluN2A-wt/GluN2B-G689S (Rattus norvegicus, UniProt P35439+Q00959+Q00960, A876H/F846L/G689S/G856D/H848F/K857R/M851T/M860L/Q845K/V861L); format: cell-based; details: glutamate dose-response
T2 construct: expressed in transfected cells; host or cells: Xenopus laevis oocytes, mRNA injection
Excerpt: as §1

[10] = system: Tri-heteromeric GluN2A-wt/GluN2B-G689S; format: cell-based, rat; details: compared to GluN2A-wt + GluN2B-wt tri-heteromeric channels
Excerpt: as §1

[11] = system: Tri-heteromeric GluN2A-wt/GluN2B-G689C; format: cell-based, rat; details: compared to GluN2A-wt + GluN2B-wt tri-heteromeric channels
Excerpt: as §1

[12] = system: non-tagged purely di-heteromeric GluN2B-G689S; details: read-out: Glutamate EC50 (adapted from[16]); non-tagged human receptors; cited from earlier work
[13] = system: Mixed tri-heteromeric GluN2A-S644G/ GluN2B-wt; set-up: method as in PMID 35110392; details: glutamate; ref 10; cited from earlier work
[14] = system: Pure variant di-heteromeric GluN2A-D731N; set-up: method as in PMID 28182669; details: glutamate; ref 33; cited from earlier work
[15] = system: Mixed tri-heteromeric GluN2A-wt/ GluN2B-A819T; set-up: method as in PMID 35110392; details: glutamate; ref 10; cited from earlier work
[16] = system: Pure variant di-heteromeric GluN2A-S644G; set-up: method as in PMID 32577763; details: glutamate; di-heteromer section; cited from earlier work
[17] = system: Mixed di-heteromeric GluN2A-wt/GluN2A-S644G; set-up: method as in PMID 32577763; details: glutamate; ref 19; cited from earlier work
[18] = system: wt tri-heteromeric GluN2A-wt/GluN2B-wt NMDAR; details: glutamate, cited from earlier work
[19] = system: Mixed di-heteromeric GluN2A-wt/GluN2A-D731N; set-up: method as in PMID 28182669; details: glutamate; ref 33; cited from earlier work
[20] = system: Mixed tri-heteromeric GluN2A-wt/ GluN2B-G543R; set-up: method as in PMID 35110392; details: glutamate; ref 10; cited from earlier work
[21] = system: non-tagged purely di-heteromeric GluN2B-wt; set-up: method as in PMID 32168371; details: read-out: Glutamate EC50 (adapted from[16]); non-tagged human receptors; cited from earlier work
[22] = system: Mixed di-heteromeric GluN2A-wt/GluN2A-T690A; set-up: method as in PMID 24607230; details: glutamate; ref 8; cited from earlier work
[23] = biological target: Tri-heteromeric GluN2A-wt/GluN2B-wt (Rattus norvegicus, UniProt P35439+Q00959+Q00960, A876H/F846L/G856D/H848F/K857R/M851T/M860L/Q845K/V861L); assay: TEVC in Xenopus oocytes; details: glutamate dose-response
Chain of Tri-heteromeric GluN2A-wt/GluN2B-wt (Q00959 23-1464, other chains not shown): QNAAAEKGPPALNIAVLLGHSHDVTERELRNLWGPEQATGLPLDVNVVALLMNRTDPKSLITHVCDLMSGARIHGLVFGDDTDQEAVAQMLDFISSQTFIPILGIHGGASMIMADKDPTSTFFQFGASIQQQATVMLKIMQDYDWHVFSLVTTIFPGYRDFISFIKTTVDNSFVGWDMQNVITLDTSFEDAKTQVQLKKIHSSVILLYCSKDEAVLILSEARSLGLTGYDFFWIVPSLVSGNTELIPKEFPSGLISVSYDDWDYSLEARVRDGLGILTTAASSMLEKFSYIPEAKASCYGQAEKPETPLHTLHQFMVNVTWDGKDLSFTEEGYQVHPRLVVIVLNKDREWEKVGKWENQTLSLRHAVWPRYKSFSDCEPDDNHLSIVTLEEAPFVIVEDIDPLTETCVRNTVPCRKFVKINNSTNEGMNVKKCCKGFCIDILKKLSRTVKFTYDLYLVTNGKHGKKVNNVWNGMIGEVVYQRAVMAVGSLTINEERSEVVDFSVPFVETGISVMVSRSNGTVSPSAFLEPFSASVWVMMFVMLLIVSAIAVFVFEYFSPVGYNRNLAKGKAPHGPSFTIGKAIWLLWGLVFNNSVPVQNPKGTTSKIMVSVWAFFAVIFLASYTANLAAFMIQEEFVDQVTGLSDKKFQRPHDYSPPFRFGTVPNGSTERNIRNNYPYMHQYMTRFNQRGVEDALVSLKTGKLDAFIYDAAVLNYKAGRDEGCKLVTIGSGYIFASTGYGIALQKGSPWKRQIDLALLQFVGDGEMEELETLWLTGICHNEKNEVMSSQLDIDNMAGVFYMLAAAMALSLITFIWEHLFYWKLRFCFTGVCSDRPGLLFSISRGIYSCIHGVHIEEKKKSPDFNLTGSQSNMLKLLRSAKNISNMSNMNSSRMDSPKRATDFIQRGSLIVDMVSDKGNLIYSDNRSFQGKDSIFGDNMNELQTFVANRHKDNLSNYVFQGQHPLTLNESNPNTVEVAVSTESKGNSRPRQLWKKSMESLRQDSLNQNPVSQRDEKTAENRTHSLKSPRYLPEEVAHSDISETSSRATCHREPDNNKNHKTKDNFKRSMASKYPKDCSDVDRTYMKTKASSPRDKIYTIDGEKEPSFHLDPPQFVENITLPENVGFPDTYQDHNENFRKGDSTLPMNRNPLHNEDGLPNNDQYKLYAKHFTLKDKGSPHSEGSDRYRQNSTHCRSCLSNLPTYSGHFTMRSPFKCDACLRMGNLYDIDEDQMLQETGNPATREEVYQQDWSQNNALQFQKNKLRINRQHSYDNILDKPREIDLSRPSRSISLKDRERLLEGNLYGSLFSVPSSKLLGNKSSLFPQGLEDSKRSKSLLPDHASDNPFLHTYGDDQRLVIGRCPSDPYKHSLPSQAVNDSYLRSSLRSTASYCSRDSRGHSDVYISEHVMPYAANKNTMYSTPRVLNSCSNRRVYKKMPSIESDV
Chain of Tri-heteromeric GluN2A-wt/GluN2B-wt (Q00960+Q00959 fused with the stated changes, other chains not shown): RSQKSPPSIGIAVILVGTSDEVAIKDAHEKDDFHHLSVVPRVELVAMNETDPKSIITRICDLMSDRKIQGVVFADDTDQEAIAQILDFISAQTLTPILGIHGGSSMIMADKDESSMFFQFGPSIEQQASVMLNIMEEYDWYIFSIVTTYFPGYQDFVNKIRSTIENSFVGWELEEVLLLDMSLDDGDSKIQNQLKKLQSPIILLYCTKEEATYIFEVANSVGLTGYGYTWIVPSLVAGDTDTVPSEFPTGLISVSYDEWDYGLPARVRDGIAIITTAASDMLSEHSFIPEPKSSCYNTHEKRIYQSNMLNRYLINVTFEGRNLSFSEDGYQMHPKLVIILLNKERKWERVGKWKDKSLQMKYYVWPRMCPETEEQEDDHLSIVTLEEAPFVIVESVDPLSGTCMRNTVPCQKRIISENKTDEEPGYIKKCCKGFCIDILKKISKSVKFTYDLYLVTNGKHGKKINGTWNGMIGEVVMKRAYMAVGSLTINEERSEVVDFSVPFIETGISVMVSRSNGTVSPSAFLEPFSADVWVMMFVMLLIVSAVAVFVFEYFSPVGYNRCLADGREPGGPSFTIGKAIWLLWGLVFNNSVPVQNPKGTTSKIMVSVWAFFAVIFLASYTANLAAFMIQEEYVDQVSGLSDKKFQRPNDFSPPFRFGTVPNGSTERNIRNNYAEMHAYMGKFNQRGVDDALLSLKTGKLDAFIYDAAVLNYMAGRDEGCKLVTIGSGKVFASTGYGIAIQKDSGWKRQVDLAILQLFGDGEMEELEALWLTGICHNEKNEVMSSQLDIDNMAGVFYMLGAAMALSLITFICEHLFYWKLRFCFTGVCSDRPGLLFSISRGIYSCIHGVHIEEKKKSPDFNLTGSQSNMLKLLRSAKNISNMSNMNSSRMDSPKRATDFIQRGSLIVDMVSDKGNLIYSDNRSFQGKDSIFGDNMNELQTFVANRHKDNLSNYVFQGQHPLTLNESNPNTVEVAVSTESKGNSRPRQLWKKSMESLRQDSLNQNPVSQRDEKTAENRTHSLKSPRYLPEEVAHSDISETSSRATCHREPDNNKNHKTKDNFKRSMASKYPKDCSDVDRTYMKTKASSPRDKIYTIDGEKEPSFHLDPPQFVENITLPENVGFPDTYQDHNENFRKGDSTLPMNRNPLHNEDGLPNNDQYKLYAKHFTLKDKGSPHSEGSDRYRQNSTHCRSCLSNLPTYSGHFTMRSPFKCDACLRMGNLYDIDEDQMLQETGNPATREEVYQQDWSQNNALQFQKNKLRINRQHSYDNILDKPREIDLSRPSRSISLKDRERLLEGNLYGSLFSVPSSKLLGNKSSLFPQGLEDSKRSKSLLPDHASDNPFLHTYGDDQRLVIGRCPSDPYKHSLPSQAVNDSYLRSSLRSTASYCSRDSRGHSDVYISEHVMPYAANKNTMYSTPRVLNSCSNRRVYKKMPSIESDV
Procedure: as §2, §3
Electrophysiology data were analyzed by Clampfit 11.2 (Molecular Devices, USA), plotted using GraphPad 8 or SigmaPlot 11(Systat software, Inc.). […] In all TEVC recordings in oocytes, the responses were normalized to current amplitude obtained from that individual cell. […] All data are shown as mean ± SEM. In all experiments N indicates the number of independent experiments, whereas n indicates the number of cells recorded. In each experiment, data underwent normality test prior to statistical assessment. Normally distributed data were assessed for significance by using paired t-test or one-way ANOVA for multiple group comparison and post hoc Tukey test or Dunnett's test. Similarly, in the case of non-normally distributed data significance was assessed by Mann Whitney test or Kruskal–Wallis ANOVA on ranks test followed by Dunn’s multiple comparison post hoc; n.s., non-significant; *p < 0.05; **p < 0.01; ***p < 0.001. […] Leak expression was evaluated by normalizing the maximal current (Imax) of each ER-retained NMDAR composition to Imax of control group (which was recorded in all experiments). […]

[24] = system: Mixed di-heteromeric GluN2A-wt/GluN2A-L812M; set-up: method as in PMID 24504326; details: glutamate; ref 39; cited from earlier work
[25] = system: Mixed di-heteromeric GluN2B-wt/GluN2B-C461F; set-up: method as in PMID 27839871; details: glutamate; ref 21; cited from earlier work
[26] = system: Mixed tri-heteromeric GluN2A-H485A/ GluN2B-wt; set-up: method as in PMID 24607230; details: glutamate; ref 8; cited from earlier work
[27] = system: Pure variant di-heteromeric GluN2B-A819T; set-up: method as in PMID 28377535; details: glutamate; ref 25; cited from earlier work
[28] = system: wt di-heteromeric GluN2A NMDAR; details: glutamate, cited from earlier work
[29] = system: Pure variant di-heteromeric GluN2B-A639V; set-up: method as in PMID 35110392; details: glutamate; ref 10; cited from earlier work

Question: What does the source list for N[C@@H](CCC(=O)O)C(=O)O [Glutamate, glutamate]?
Answer: EC50 [1]: 0.84 µM; EC50 [2]: 0.05 µM; EC50 [3]: 290 µM; EC50 [4]: 0.58 µM; EC50 [5]: 0.39 µM; Hill coefficient (nH) [6]: 0.75 ± 0.08 n.s (N = 6, n = 54); higher (improved) glutamate potency [7]: ~ four-fold; Hill coefficient (nH) [8]: 0.85 ± 0.14 n.s (N = 1, n = 10); Hill coefficient (nH) [9]: 1.06 ± 0.13 n.s (N = 1, n = 11); increase in EC50 [10]: ~ 600 fold; increase in EC50 [11]: ~ 300 fold; EC50 [12]: 2500 ± 400 µM; EC50 [13]: 0.49 µM; EC50 [14]: 30000 µM; EC50 [15]: 0.71 µM; EC50 [16]: 0.05 µM; EC50 [17]: 0.7 µM; EC50 ([18]; ref 8): 2.6 µM; EC50 ([18]; ref 10): 2.2 µM; EC50 [19]: 6450 µM; EC50 [20]: 1.9 µM; EC50 [21]: 1.4 ± 0.1 µM; EC50 [22]: 660 µM; Hill coefficient (nH) [23]: 0.77 ± 0.22 (N = 3, n = 33); EC50 [24]: 1 µM; EC50 [25]: 61 µM; EC50 [26]: 210 µM; EC50 [27]: 0.58 µM; EC50 ([28]; ref 8): 4.2 µM; EC50 ([28]; ref 19): 4.5 µM; EC50 ([28]; ref 32): 3.9 µM; EC50 ([28]; ref 33): 5.7 µM; EC50 ([28]; ref 39): 4 µM; EC50 ([28]; ref 91): 3.6 µM; EC50 [29]: 0.28 µM
